# According to patent publication US8471004B2, “Bicyclic compounds” (Hoffman-La Roche Inc., priority 2009, dated 2013):
# Target: T1, human chemokine receptor 2 isoform B (Homo sapiens, UniProt P41597)
# T1 construct: host or cells: CHOK1-CCR2B-A5 (CHO-K1)
# T1 sequence (P41597 1-360 isoform P41597-2): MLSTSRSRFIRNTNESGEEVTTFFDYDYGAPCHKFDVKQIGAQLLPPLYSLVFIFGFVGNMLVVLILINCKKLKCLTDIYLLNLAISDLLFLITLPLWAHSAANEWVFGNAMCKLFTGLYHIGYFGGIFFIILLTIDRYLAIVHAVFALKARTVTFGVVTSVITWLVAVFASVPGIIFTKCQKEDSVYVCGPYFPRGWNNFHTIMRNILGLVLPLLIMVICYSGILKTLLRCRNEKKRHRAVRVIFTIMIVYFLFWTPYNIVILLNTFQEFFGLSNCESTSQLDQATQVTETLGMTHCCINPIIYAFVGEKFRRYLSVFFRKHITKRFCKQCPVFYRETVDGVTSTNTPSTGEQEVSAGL
# Test: Calcium mobilization assay (CHOK1-CCR2B-A5 cells, FLIPR, MCP-1 stimulated)
# Format: cell-based
# Conditions: Ca mobilisation assay for CCR2, antagonist activity, 50% inhibition of specific calcium increases after 20 nM MCP-1
# Protocol: CHOK1-CCR2B-A5 cells (from Euroscreen) stably overexpressing the human chemokine receptor 2 isoform B were cultured in Nutrient Hams F12 medium supplemented with 5% FBS, 100 U/ml penicillin, 100 μg/ml streptomycin, 400 μg/ml G418 and 5 μg/ml puromycin.
# For the assay cells were grown overnight in 384-well black clear flat bottom polystyrene plates (Costar) at 37° C. at 5% CO2. After washing with DMEM, 20 mM Hepes, 2.5 mM probenecid, 0.1% BSA (DMEM assay buffer) cells were loaded with 4 μM Fluo-4 in the same DMEM assay buffer for 2 hours at 30° C. Excess dye was removed and cells were washed with DMEM assay buffer. 384-well compound plates were prepared with DMEM assay buffer/0.5% DMSO with or without various concentrations of test compounds. Usually compounds were tested for agonist and antagonist activity.
# Test compounds were added to the assay plate and agonist activity was monitored as fluorescence for 80 seconds with a FLIPR (488 nm excitation; 510-570 nm emission; Molecular Devices). After 20-30 min. of incubation at 30° C., 20 nM MCP-1 (R&D; Roche) was added and fluorescence was monitored again for 80 seconds. Increases in intracellular calcium are reported as maximum fluorescence after agonist exposure minus basal fluorescence before exposure. Antagonist activity is indicated as inhibitor concentration required for 50% inhibition of specific calcium increases.
row,IC50 [nM],Structure (SMILES)
1,81,"C[C@H]1C(=O)N2[C@@H](CCN3CCC(F)(F)CC3)COC[C@H]2CN1C(=O)Nc1ccc(Cl)c(Cl)c1 [Example 56, (4S,7S,9aR)—N-(3,4-dichlorophenyl)-4-(2-(4,4-difluoropiperidin-1-yl)ethyl)-7-methyl-6-oxohexahydropyrazino[2,1-c][1,4]oxazine-8(1H)-carboxamide]"
2,144,"O=C(Nc1ccc(Cl)c(Cl)c1)N1CCC(=O)N2[C@@H](CCN3CCC4(CC4)[C@H](O)C3)CC[C@H]2C1 [Example 49, (7R,9aS)-7-[2-((S)-4-Hydroxy-6-aza-spiro[2.5]oct-6-yl)-ethyl]-5-oxo-hexahydro-pyrrolo[1,2-a][1,4]diazepine-2-carboxylic acid (3,4-dichloro-phenyl)-amide]"
3,40.4,"C[C@H]1C(=O)N2[C@@H](CCC(=O)N3CCC4(CC4)[C@H](O)C3)CC[C@H]2CN1C(=O)Nc1ccc(Cl)c(Cl)c1 [Example 42, (3S,6R,8aS)-6-[3-((S)-4-Hydroxy-6-aza-spiro[2.5]oct-6-yl)-3-oxo-propyl]-3-methyl-4-oxo-hexahydro-pyrrolo[1,2-a]pyrazine-2-carboxylic acid (3,4-dichloro-phenyl)-amide]"
4,16.7,"C[C@H]1C(=O)N2[C@@H](CCN3CCC4(CC4)C(F)(F)C3)COC[C@H]2CN1C(=O)Nc1ccc(Cl)c(Cl)c1 [Example 53, (4S,7S,9aR)—N-(3,4-dichlorophenyl)-4-(2-(4,4-difluoro-6-azaspiro[2.5]octan-6-yl)ethyl)-7-methyl-6-oxohexahydropyrazino[2,1-c][1,4]oxazine-8(1H)-carboxamide]"
5,200,"C[C@H]1C(=O)N2[C@@H](CCCN3CCC(F)(F)C3)CC[C@H]2CN1C(=O)Nc1ccc(Cl)c(Cl)c1 [Example 45, (3S,6S,8aS)-6-[3-(3,3-Difluoro-pyrrolidin-1-yl)-propyl]-3-methyl-4-oxo-hexahydro-pyrrolo[1,2-a]pyrazine-2-carboxylic acid (3,4-dichloro-phenyl)-amide]"
6,34.3,"C[C@H]1C(=O)N2[C@@H](CCN3CCC4(CC4)C(F)(F)C3)COC[C@H]2CN1C(=O)Nc1ccc(C(F)(F)F)c(Cl)c1 [Example 55, (4S,7S,9aR)—N-(3-chloro-4-(trifluoromethyl)phenyl)-4-(2-(4,4-difluoro-6-azaspiro[2.5]octan-6-yl)ethyl)-7-methyl-6-oxohexahydropyrazino[2,1-c][1,4]oxazine-8(1H)-carboxamide]"
7,473,"C[C@H]1C(=O)N2[C@@H](CCCN3CC(F)(F)C(F)(F)C3)CC[C@H]2CN1C(=O)Nc1ccc(Cl)c(Cl)c1 [Example 44, (3S,6S,8aS)-3-Methyl-4-oxo-6-[3-(3,3,4,4-tetrafluoro-pyrrolidin-1-yl)-propyl]-hexahydro-pyrrolo[1,2-a]pyrazine-2-carboxylic acid (3,4-dichloro-phenyl)-amide]"
8,2.2,"C[C@H]1C(=O)N2[C@@H](CCN3CCC4(CC4)[C@H](O)C3)CCC[C@H]2CN1C(=O)Nc1ccc(Cl)c(Cl)c1 [Example 65, (3S,6R,9aS)-6-[2-((S)-4-Hydroxy-6-aza-spiro[2.5]oct-6-yl)-ethyl]-3-methyl-4-oxo-octahydro-pyrido[1,2-a]pyrazine-2-carboxylic acid (3,4-dichloro-phenyl)-amide]"
9,7.9,"C[C@H]1C(=O)N2[C@@H](CCN3CCC4(CC4)[C@H](O)C3)CCC[C@H]2CN1C(=O)Nc1cccc(F)c1 [Example 67, (3S,6R,9aS)-6-[2-((S)-4-Hydroxy-6-aza-spiro[2.5]oct-6-yl)-ethyl]-3-methyl-4-oxo-octahydro-pyrido[1,2-a]pyrazine-2-carboxylic acid (3-fluoro-phenyl)-amide]"
10,20.5,"C[C@H]1C(=O)N2[C@@H](CCC(=O)N3CCC4(CC4)[C@H](O)C3)CC[C@H]2CN1C(=O)Nc1ccc(C(F)(F)F)c(Cl)c1 [Example 43, (3S,6R,8aS)-6-[3-((S)-4-Hydroxy-6-aza-spiro[2.5]oct-6-yl)-3-oxo-propyl]-3-methyl-4-oxo-hexahydro-pyrrolo[1,2-a]pyrazine-2-carboxylic acid (3-chloro-4-trifluoromethyl-phenyl)-amide]"
11,170,"C[C@H]1C(=O)N2[C@@H](CCN3CCC4(CC4)C(F)(F)C3)COC[C@H]2CN1C(=O)Nc1cccc(Cl)c1 [Example 54, (4S,7S,9aR)—N-(3-chlorophenyl)-4-(2-(4,4-difluoro-6-azaspiro[2.5]octan-6-yl)ethyl)-7-methyl-6-oxohexahydropyrazino[2,1-c][1,4]oxazine-8(1H)-carboxamide]"

# Continued, molecule first:
row,Structure (SMILES),IC50 [nM]
1,"C[C@H]1C(=O)N2C(CN1C(=O)Nc1ccc(Cl)c(Cl)c1)OC[C@@H]2CC(=O)N1CCC2(CC2)[C@H](O)C1 (stereo partly drawn) [Example 29, (3S,6S)-3-[2-((S)-4-Hydroxy-6-aza-spiro[2.5]oct-6-yl)-2-oxo-ethyl]-6-methyl-5-oxo-hexahydro-oxazolo[3,2-a]pyrazine-7-carboxylic acid (3,4-dichloro-phenyl)-amide]",774
2,"C[C@H]1C(=O)N2[C@@H](CCC(=O)N3CCC4(CC4)[C@H](O)C3)CO[C@@H]2CN1C(=O)/C=C/c1ccc(F)c(Cl)c1 [Example 26, (3S,6S,8aR)-7-[(E)-3-(3-Chloro-4-fluoro-phenyl)-acryloyl]-3-[3-((S)-4-hydroxy-6-aza-spiro[2.5]oct-6-yl)-3-oxo-propyl]-6-methyl-hexahydro-oxazolo[3,2-a]pyrazin-5-one]",61.8
3,"C[C@H]1C(=O)N2[C@@H](CCC(=O)N3CCC4(CC4)[C@H](O)C3)CO[C@@H]2CN1C(=O)Nc1ccc(C(F)(F)F)c(Cl)c1 [Example 24, (3S,6S,8aR)-3-[3-((S)-4-Hydroxy-6-aza-spiro[2.5]oct-6-yl)-3-oxo-propyl]-6-methyl-5-oxo-hexahydro-oxazolo[3,2-a]pyrazine-7-carboxylic acid (3-chloro-4-trifluoromethyl-phenyl)-amide]",5.5
4,"C[C@H]1C(=O)N2[C@@H](CCCN3CCC4(CC4)[C@H](O)C3)CC[C@H]2CN1C(=O)Nc1ccc(Cl)c(Cl)c1 [Example 41, (3S,6S,8aS)-6-[3-((S)-4-Hydroxy-6-aza-spiro[2.5]oct-6-yl)-propyl]-3-methyl-4-oxo-hexahydro-pyrrolo[1,2-a]pyrazine-2-carboxylic acid (3,4-dichloro-phenyl)-amide]",3.3
5,"C[C@H]1C(=O)N2[C@@H](CCN3CCC4(CC4)[C@H](O)C3)CC[C@H]2CN1C(=O)Nc1ccc(Cl)c(Cl)c1 [Example 33, (3S,6R,8aS)-6-[2-((S)-4-Hydroxy-6-aza-spiro[2.5]oct-6-yl)-ethyl]-3-methyl-4-oxo-hexahydro-pyrrolo[1,2-a]pyrazine-2-carboxylic acid (3,4-dichloro-phenyl)-amide]",2.7
6,"C[C@H]1C(=O)N2[C@@H](CCN3CCC4(CC4)[C@H](O)C3)CO[C@H]2CN1C(=O)Nc1ccc(F)c(Cl)c1 [Example 6, (3S,6S,8aS)-3-[2-((S)-4-Hydroxy-6-aza-spiro[2.5]oct-6-yl)-ethyl]-6-methyl-5-oxo-hexahydro-oxazolo[3,2-a]pyrazine-7-carboxylic acid (3-chloro-4-fluoro-phenyl)-amide]",72
7,"C[C@H]1C(=O)N2[C@@H](CCC(=O)N3CCC4(CC4)[C@H](O)C3)CO[C@H]2CN1C(=O)/C=C/c1ccc(F)c(Cl)c1 [Example 27, (3S,6S,8aS)-7-[(E)-3-(3-Chloro-4-fluoro-phenyl)-acryloyl]-3-[3-((S)-4-hydroxy-6-aza-spiro[2.5]oct-6-yl)-3-oxo-propyl]-6-methyl-hexahydro-oxazolo[3,2-a]pyrazin-5-one]",49.4
8,"C[C@H]1C(=O)N2[C@@H](CCCN3CCC4(CC4)[C@H](O)C3)CO[C@]2(C)CN1C(=O)Nc1ccc(Cl)c(Cl)c1 [Example 22, (3S,6S,8aR)-3-[3-((S)-4-hydroxy-6-aza-spiro[2.5]oct-6-yl)-propyl]-6,8a-dimethyl-5-oxo-hexahydro-oxazolo[3,2-a]pyrazine-7-carboxylic acid (3,4-dichloro-phenyl)-amide]",27.4
9,"C[C@H]1C(=O)N2C(CN1C(=O)Nc1ccc(Cl)c(Cl)c1)OCCC[C@H]2CN1CCC2(CC2)[C@H](O)C1 (stereo partly drawn) [Example 28, (3S,5S)-5-((S)-4-Hydroxy-6-aza-spiro[2.5]oct-6-ylmethyl)-3-methyl-4-oxo-octahydro-9-oxa-2,4a-diaza-benzocycloheptene-2-carboxylic acid (3,4-dichloro-phenyl)-amide]",3.7
10,"C[C@H]1C(=O)N2[C@@H](CCCN3CCC4(CC4)[C@H](O)C3)COC2(C)CN1C(=O)Nc1ccc(Cl)c(Cl)c1 (stereo partly drawn) [Example 12, (3S,6S)-3-[3-((S)-4-Hydroxy-6-aza-spiro[2.5]oct-6-yl)-propyl]-6,8a-dimethyl-5-oxo-hexahydro-oxazolo[3,2-a]pyrazine-7-carboxylic acid (3,4-dichloro-phenyl)-amide]",12
